Assays:
CDK1/Cyclin B = target: T1, CDK1/Cyclin B (Homo sapiens, UniProt P06493); experiment: Enzymatic assay for CDK1 (FRET based LANCE Ultra kinase assay); format: biochemical; settings: read-out: CDK1 enzymatic activity (IC50 range)
T1 construct: purchased Invitrogen PR4768C
How it was run: (§1)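 LANCE Ultra TR-FRET: ULight-MBP peptide (68 nM) with ATP at Km, […], 60 min at 23° C. EDTA plus Eu-anti-phospho-MBP added, another 60 min, then 665/615 nm emission read. Compounds tested as 8-dose 4-fold DMSO dilutions.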

CDK2/Cyclin A = target: T2, CDK2/Cyclin A (Homo sapiens, UniProt P24941); experiment: Enzymatic assay for CDK2 (FRET based LANCE Ultra kinase assay); format: biochemical; settings: read-out: CDK2 enzymatic activity (IC50 range)
T2 construct: purchased Invitrogen PV6290
How it was run: as §1

CDK5/p25 = target: T3, CDK5/p25 (Homo sapiens, UniProt Q00535); experiment: Enzymatic assay for CDK5 (FRET based LANCE Ultra kinase assay); format: biochemical; settings: read-out: CDK5 enzymatic activity (IC50 range)
T3 construct: purchased Invitrogen PR8543B
How it was run: as §1

CDK7/Cyclin H/MNAT1 = target: T4, CDK7/Cyclin H/MNAT1 (Homo sapiens, UniProt P50613); experiment: Enzymatic assay for CDK7 (FRET based LANCE Ultra kinase assay); format: biochemical; settings: for IC50: read-out: CDK7 enzymatic activity (IC50 range)
T4 construct: purchased Invitrogen PR6749B
How it was run: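 Inhibition was measured at Km ATP by time-resolved FRET between a Eu anti-phospho antibody and a phosphorylated ULight peptide. The enzyme was the purified CDK7/cyclin complex, and data were curve-fitted.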

MOLT-4 = experiment: Cellular MOLT-4 viability assay (CellTiter-Glo, 72 hours); format: cell-based; settings: Homo sapiens, MOLT4 viability assay
How it was run: (§2)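 Mycoplasma-tested cells, seeded at densities chosen for each line, received compound or DMSO vehicle (under 0.1% final) for 72 hours. Duplicate cultures were then read for viability by CellTiter-Glo luminescence.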

RPMI-8226 = experiment: Cellular RPMI-8226 viability assay (CellTiter-Glo, 72 hours); format: cell-based; settings: Homo sapiens
Method: All cell lines were routinely tested for mycoplasma.
The effect of the CDK7 inhibitor to inhibit the growth of target cancer cells was evaluated through the 72 hours time period of viability assay. Briefly, the candidate cell line ware plated in 96 well plate at the following density of cells respectively. […] DMSO solvent without compound served as a control and final DMSO concentration less than 0.1%. After 72 hours of incubation at 37° C., 5% CO2 incubator, cells were analyzed for the viability using the CellTiter-Glo Luminescent Cell Viability Assay (Promega, Cat #G7570). All viability assays were performed in duplicate and Luminescence was read using an Envision (Perkin Elmer, USA). Data was analyzed using XLfit software.

H460 = experiment: Cellular H460 viability assay (CellTiter-Glo, 72 hours); format: cell-based; settings: Homo sapiens, NCI-H460
How it was run: as §2

HCT116 = experiment: Cellular HCT116 viability assay (CellTiter-Glo, 72 hours); format: cell-based; settings: Homo sapiens, HCT-116
How it was run: as §2

MV4-11 = experiment: Cellular MV4-11 viability assay (CellTiter-Glo, 72 hours); format: cell-based; settings: Homo sapiens
How it was run: as §2

T1 sequence (P06493 whole entry): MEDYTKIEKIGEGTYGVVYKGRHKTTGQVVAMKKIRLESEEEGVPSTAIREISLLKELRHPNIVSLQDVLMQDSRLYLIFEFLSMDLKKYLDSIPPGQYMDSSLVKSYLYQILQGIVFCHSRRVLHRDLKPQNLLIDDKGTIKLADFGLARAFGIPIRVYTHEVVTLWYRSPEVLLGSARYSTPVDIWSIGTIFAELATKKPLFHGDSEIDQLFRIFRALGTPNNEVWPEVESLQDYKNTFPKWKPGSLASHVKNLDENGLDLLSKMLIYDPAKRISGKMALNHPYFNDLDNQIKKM
T1 sequence (P14635 whole entry partner): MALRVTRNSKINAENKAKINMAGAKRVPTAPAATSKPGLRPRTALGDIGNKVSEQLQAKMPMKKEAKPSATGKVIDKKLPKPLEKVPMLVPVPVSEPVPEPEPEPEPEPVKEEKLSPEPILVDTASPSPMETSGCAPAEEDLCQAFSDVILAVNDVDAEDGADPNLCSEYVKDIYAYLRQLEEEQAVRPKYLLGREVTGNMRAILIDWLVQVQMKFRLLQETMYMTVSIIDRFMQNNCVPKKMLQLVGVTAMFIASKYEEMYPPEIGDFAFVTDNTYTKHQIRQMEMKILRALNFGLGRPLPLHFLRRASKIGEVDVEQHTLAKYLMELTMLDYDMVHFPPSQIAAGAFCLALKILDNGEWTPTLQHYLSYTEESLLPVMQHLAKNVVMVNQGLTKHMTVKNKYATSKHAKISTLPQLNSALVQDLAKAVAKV
T4 sequence (P50613 whole entry): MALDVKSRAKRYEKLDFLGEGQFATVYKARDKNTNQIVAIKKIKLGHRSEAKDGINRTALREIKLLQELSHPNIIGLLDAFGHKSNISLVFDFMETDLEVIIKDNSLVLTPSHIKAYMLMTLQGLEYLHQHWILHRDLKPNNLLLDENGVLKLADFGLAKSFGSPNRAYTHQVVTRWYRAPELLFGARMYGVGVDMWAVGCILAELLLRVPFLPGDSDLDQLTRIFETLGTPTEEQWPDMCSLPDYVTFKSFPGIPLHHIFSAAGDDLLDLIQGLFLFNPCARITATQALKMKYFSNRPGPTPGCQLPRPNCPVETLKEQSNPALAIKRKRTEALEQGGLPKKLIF
T4 sequence (P51946 whole entry partner): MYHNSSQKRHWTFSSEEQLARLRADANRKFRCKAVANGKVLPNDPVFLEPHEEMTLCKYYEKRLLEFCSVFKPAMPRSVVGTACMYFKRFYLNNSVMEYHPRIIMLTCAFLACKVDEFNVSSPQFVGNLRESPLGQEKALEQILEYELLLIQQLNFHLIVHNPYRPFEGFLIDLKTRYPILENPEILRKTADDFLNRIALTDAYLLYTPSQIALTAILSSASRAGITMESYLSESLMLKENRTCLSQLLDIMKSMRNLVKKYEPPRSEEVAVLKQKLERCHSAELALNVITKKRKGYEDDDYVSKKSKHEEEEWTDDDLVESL
T4 sequence (P51948 whole entry partner): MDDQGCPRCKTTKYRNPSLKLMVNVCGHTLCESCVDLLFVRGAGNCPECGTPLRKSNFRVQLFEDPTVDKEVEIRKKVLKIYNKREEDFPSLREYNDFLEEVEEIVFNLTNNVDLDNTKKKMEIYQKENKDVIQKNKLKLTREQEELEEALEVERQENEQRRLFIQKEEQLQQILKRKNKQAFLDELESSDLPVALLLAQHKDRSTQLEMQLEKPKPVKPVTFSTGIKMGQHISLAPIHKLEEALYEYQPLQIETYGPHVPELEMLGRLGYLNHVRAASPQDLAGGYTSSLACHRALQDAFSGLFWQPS
T3 sequence (Q00535 whole entry): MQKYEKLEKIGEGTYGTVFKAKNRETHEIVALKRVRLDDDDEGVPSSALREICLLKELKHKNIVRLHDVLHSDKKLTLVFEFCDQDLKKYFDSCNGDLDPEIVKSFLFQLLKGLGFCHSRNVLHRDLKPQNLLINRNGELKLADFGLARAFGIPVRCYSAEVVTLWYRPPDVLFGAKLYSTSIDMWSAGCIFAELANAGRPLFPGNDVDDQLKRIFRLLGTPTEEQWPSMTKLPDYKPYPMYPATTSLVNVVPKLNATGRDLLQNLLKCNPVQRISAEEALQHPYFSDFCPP
T3 sequence (Q15078 99-307 partner limits assumed): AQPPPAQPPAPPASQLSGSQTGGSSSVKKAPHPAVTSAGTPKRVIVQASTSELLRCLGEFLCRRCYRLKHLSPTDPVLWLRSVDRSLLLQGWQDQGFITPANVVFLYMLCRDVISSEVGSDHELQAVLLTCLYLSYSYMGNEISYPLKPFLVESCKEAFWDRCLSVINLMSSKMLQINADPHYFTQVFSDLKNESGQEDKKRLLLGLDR

Row | Structure (SMILES) | IC50 (CDK1/Cyclin B) | IC50 (CDK2/Cyclin A) | IC50 (CDK5/p25) | CDK1/CDK7: Selectivity of CDK7 inhibition over CDK1 inhibition (CDK7/Cyclin H/MNAT1) | CDK2/CDK7: Selectivity of CDK7 inhibition over CDK2 inhibition (CDK7/Cyclin H/MNAT1) | CDK5/CDK7: Selectivity of CDK7 inhibition over CDK5 inhibition (CDK7/Cyclin H/MNAT1) | IC50 (CDK7/Cyclin H/MNAT1) | IC50 (MOLT-4) | IC50 (RPMI-8226) | IC50 (H460) | IC50 (HCT116) | IC50 (MV4-11)
1 | CC(C)c1cnn2c(NCc3ccccc3NC(=O)c3ccccc3)nc(N3CCC(N)CC3)nc12 [Compound 87] | > 1000 nM | > 1000 nM | 100 to 1000 nM | A (A=greater than 200 fold) | A (A=greater than 200 fold) | B (B=less than 200 fold, but greater than 20 fold) | < 100 nM | 1 to 10 µM | < 1000 nM |  |  | 
2 | CC(C)c1cnn2c(NCc3cccc4ccc(-n5cccn5)nc34)nc(N3CCC(N)CC3)nc12 [Compound 59] |  |  |  |  |  |  |  | 1 to 10 µM | 1000 to 10000 nM | 1000 to 10000 nM |  | 
3 | CC(C)c1cnn2c(NCc3ccccc3Oc3ccccc3)nc(N3CCC(N)CC3)nc12 [Compound 56] | > 1000 nM | > 1000 nM | 100 to 1000 nM | B (B=less than 200 fold, but greater than 20 fold) | B (B=less than 200 fold, but greater than 20 fold) | C (C=less than 20 fold) | < 100 nM | 1 to 10 µM | 1000 to 10000 nM | < 1000 nM |  | 
4 | CC(C)c1cnn2c(NCc3ccccc3Nc3ccccc3)nc(N3CCC(N)CC3)nc12 [Compound 61] | > 1000 nM | 100 to 1000 nM | 100 to 1000 nM | B (B=less than 200 fold, but greater than 20 fold) | B (B=less than 200 fold, but greater than 20 fold) | C (C=less than 20 fold) | < 100 nM | 1 to 10 µM | 1000 to 10000 nM | < 1000 nM |  | 
5 | CC(C)c1cnn2c(NCc3ccccc3-c3cc4ccccc4[nH]3)nc(N3CCC(C(N)=O)CC3)nc12 [Compound 117] | > 1000 nM | > 1000 nM | > 1000 nM | A (A=greater than 200 fold) | A (A=greater than 200 fold) | B (B=less than 200 fold, but greater than 20 fold) | 100 to 1000 nM | 1 to 10 µM | 1000 to 10000 nM |  |  | 
6 | CC(C)c1cnn2c(NCc3ccccc3-c3cc4ccccc4[nH]3)nc(NC3CCOCC3)nc12 [Compound 114] | > 1000 nM | > 1000 nM | > 1000 nM | A (A=greater than 200 fold) | B (B=less than 200 fold, but greater than 20 fold) | B (B=less than 200 fold, but greater than 20 fold) | 100 to 1000 nM | 1 to 10 µM | 1000 to 10000 nM |  |  | 
7 | CC(C)c1cnn2c(NCc3cccc4c3N(C)C(=O)CC4)nc(N3CCC(N)CC3)nc12 [Compound 69] | 100 to 1000 nM | < 100 nM | < 100 nM | B (B=less than 200 fold, but greater than 20 fold) | B (B=less than 200 fold, but greater than 20 fold) | C (C=less than 20 fold) | < 100 nM | 1 to 10 µM | < 1000 nM | < 1000 nM |  | 
8 | CC(C)c1cnn2c(NCc3ccccc3N3CCCC3)nc(N3CCC(N)CC3)nc12 [Compound 54] | > 1000 nM | 100 to 1000 nM | 100 to 1000 nM | B (B=less than 200 fold, but greater than 20 fold) | B (B=less than 200 fold, but greater than 20 fold) | C (C=less than 20 fold) | < 100 nM | 1 to 10 µM | 1000 to 10000 nM | < 1000 nM |  | 
9 | CC(C)c1cnn2c(NCc3ccccc3N3CCc4ccccc43)nc(N3CCC(N)CC3)nc12 [Compound 76] | > 1000 nM | > 1000 nM | 100 to 1000 nM | A (A=greater than 200 fold) | B (B=less than 200 fold, but greater than 20 fold) | B (B=less than 200 fold, but greater than 20 fold) | < 100 nM | 1 to 10 µM | < 1000 nM | < 1000 nM |  | 
10 | CC(C)c1cnn2c(NCc3ccccc3N(C)c3ccccc3)nc(N3CCC(N)CC3)nc12 [Compound 63] | 100 to 1000 nM | 100 to 1000 nM | 100 to 1000 nM | B (B=less than 200 fold, but greater than 20 fold) | B (B=less than 200 fold, but greater than 20 fold) | B (B=less than 200 fold, but greater than 20 fold) | < 100 nM | > 10 µM | 1000 to 10000 nM | < 1000 nM |  | 
11 | CC(C)c1cnn2c(NCc3ccccc3-c3nc4ccccc4n3C)nc(N3CCC(N)CC3)nc12 [Compound 96] | > 1000 nM | > 1000 nM | 100 to 1000 nM | A (A=greater than 200 fold) | A (A=greater than 200 fold) | B (B=less than 200 fold, but greater than 20 fold) | < 100 nM | 1 to 10 µM | < 1000 nM | < 1000 nM |  | 
12 | CC(C)c1cnn2c(NCc3ccccc3-n3ncc4ccccc43)nc(N3CCC(N)CC3)nc12 [Compound 58] |  |  |  |  |  |  |  | 1 to 10 µM | 1000 to 10000 nM |  |  | 
13 | CC(C)c1cnn2c(NCc3ccccc3-n3cc4cc(-c5ccccc5)ccc4n3)nc(N3CCC(N)CC3)nc12 [Compound 101] |  |  |  |  |  |  |  | 1 to 10 µM | 1000 to 10000 nM | 1000 to 10000 nM |  | 
14 | CC(C)c1cnn2c(NCc3ccccc3-n3cc4cc(Br)ccc4n3)nc(N3CCC(N)CC3)nc12 [Compound 100] |  |  |  |  |  |  |  | 1 to 10 µM | 1000 to 10000 nM | < 1000 nM |  | 
15 | CC(C)c1cnn2c(NCc3ccccc3-n3cc4cc(C(N)=O)ccc4n3)nc(N3CCC(N)CC3)nc12 [Compound 146] | 100 to 1000 nM | 100 to 1000 nM | 100 to 1000 nM | A (A=greater than 200 fold) | A (A=greater than 200 fold) | B (B=less than 200 fold, but greater than 20 fold) | < 100 nM |  | < 1000 nM | < 1000 nM | < 1000 nM | < 1000 nM
16 | CC(=O)NC1CCN(c2nc(NCc3ccccc3-c3cc4ccccc4[nH]3)n3ncc(C(C)C)c3n2)CC1 [Compound 111] | > 1000 nM | > 1000 nM | > 1000 nM | B (B=less than 200 fold, but greater than 20 fold) | B (B=less than 200 fold, but greater than 20 fold) | C (C=less than 20 fold) | < 100 nM | 1 to 10 µM | 1000 to 10000 nM |  |  | 
17 | CC(C)c1cnn2c(NCc3cccc4ccc(NC(=O)CCCN(C)C)nc34)nc(N3CCC(N)CC3)nc12 [Compound 95] | > 1000 nM | 100 to 1000 nM | 100 to 1000 nM | A (A=greater than 200 fold) | A (A=greater than 200 fold) | B (B=less than 200 fold, but greater than 20 fold) | < 100 nM | 1 to 10 µM | < 1000 nM |  |  | 
18 | CC(C)c1cnn2c(NCc3ccccc3-n3cc4c(n3)CCOC4)nc(N3CCC(N)CC3)nc12 [Compound 133] | > 1000 nM | 100 to 1000 nM | 100 to 1000 nM | A (A=greater than 200 fold) | B (B=less than 200 fold, but greater than 20 fold) | B (B=less than 200 fold, but greater than 20 fold) | < 100 nM |  | < 1000 nM | < 1000 nM | < 1000 nM | < 1000 nM

— patent publication US11945822B2, “Pyrazolo-triazine and/or pyrazolo-pxrimidine derivatives as selective inhibitor of cyclin dependent kinase” (QURIENT CO., LTD., priority 2018, dated 2024)
